Data on 52 sequences can be found in the supplement of paper PMC11208160.
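Note: IS621 bridge recombinase in Escherichia coli cells against a fixed T5 target plasmid.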

A short description of this data set: recombinant UMI read abundance after kanamycin selection (control-corrected) (log10(CPM+1)); higher = more efficient recombination; extreme values may be limits of the assay; sequences stand for … in AGTGCAGAGAAAATCGGCCAGTTTTCTCTGCCTGCAGTCCGCATGCCGTGGGACCCCTTGGGTTCTAACCTGTTGCCTAGATTTATGCAGCGGACTGCCTTTCTCCCAAAGTGATAAACCGG…AGGTTGGTTTCACT; site = the 11-nt donor. The method in brief:
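Under IPTG (0.07 mM) plus kanamycin, or without selection, Escherichia coli carrying a UMI-tagged donor and donor-binding-loop pair library and a target plasmid for the IS621 bridge recombinase were plated in two replicates. Recombinant UMIs were PCR-amplified across the donor–target junction and sequenced. Counts were converted to CPM, averaged over replicates, scaled by control-derived factors and reported as log10(CPM+1).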
On to “GGCCACCCATGGACCGGTTTTCCCGGTAATCCGTATTTGTG (site GGCCACCCTAA)”, for which the “recombinant UMI read abundance (log10)” value worked out at 0.00884.
Next, “GGCCACCCATGGACCGGTTTTCCCGGTAATCCGTATTTGTG (site GGCCACCCTCA)”: 0.00742; “GGCCACCCATGGACCGGTTTTCCCGGTAATCCGTATTTGTG (site GGCCACCCTGA)”: 0.
Next, “GGCCACCCATGGACCGGTTTTCCCGGTAATCCGTATTTGTG (site GGCCACCCTTA)”: 0.0265.
For “GGCCACGCATGGACCGGTTTTCCCGGTAATCCGTATTTGTT (site GGCCACACTAA)”, the “recombinant UMI read abundance (log10)” value stood at 0.148.
Regarding “GGCCACGCATGGACCGGTTTTCCCGGTAATCCGTATTTGTT (site GGCCACCCTAA)”, the “recombinant UMI read abundance (log10)” value stood at 0.023.
With “GGCCACGCATGGACCGGTTTTCCCGGTAATCCGTATTTGTT (site GGCCACGCTAA)” the figure was 0.96; with “GGCCACGCATGGACCGGTTTTCCCGGTAATCCGTATTTGTT (site GGCCACTCTAA)”, 0.0156; with “GGCCATCCATGGACCGGTTTTCCCGGTAATCCGTATTTGAA (site GGCAATCCTTT)”, 0.00447.
With “GGCCATCCATGGACCGGTTTTCCCGGTAATCCGTATTTGAA (site GGCCATCCTTT)” the figure was 0.00888; with “GGCCATCCATGGACCGGTTTTCCCGGTAATCCGTATTTGAA (site GGCGATCCTTT)”, 0.00507.
With “GGCCATCCATGGACCGGTTTTCCCGGTAATCCGTATTTGAA (site GGCTATCCTTT)” the figure was 0.0589.
Regarding “GGCCCCCCATGGACCGGTTTTCCCGGTAATCCGTATTTGTT (site GGCCACCCTAA)”, the “recombinant UMI read abundance (log10)” value worked out at 0.0272.
On to “GGCCCCCCATGGACCGGTTTTCCCGGTAATCCGTATTTGTT (site GGCCCCCCTAA)”, for which the “recombinant UMI read abundance (log10)” value was determined as 0.0352.
Turning to “GGCCCCCCATGGACCGGTTTTCCCGGTAATCCGTATTTGTT (site GGCCGCCCTAA)”, the “recombinant UMI read abundance (log10)” value amounted to 0.0281.
Next, “GGCCCCCCATGGACCGGTTTTCCCGGTAATCCGTATTTGTT (site GGCCTCCCTAA)”: 0.0156; “GGCCTAGCATGGACCGGTTTTCCCGGTAATCCGTATTTGTT (site AGCCTAGCTAA)”: 0; “GGCCTAGCATGGACCGGTTTTCCCGGTAATCCGTATTTGTT (site CGCCTAGCTAA)”: 0.0146.
Take “GGCCTAGCATGGACCGGTTTTCCCGGTAATCCGTATTTGTT (site GGCCTAGCTAA)”: the “recombinant UMI read abundance (log10)” value stood at 0.00233.
Next, “GGCCTAGCATGGACCGGTTTTCCCGGTAATCCGTATTTGTT (site TGCCTAGCTAA)”: 0.0108.
Next, “GGCGATACATGGACCGGTTTTCCCGGTAATCCGTATTTGCT (site GGCGATACTAG)”: 1.5; “GGCGCTACATGGACCGGTTTTCCCGGTAATCCGTATTTGAT (site GGCGCTACTAT)”: 0.866.
For “GGCGGCTCATGGACCGGTTTTCCCGGTAATCCGTATTTGTG (site GGCGGCTCTCA)”, the “recombinant UMI read abundance (log10)” value stood at 1.23.
With “GGCGTGGCATGGACCGGTTTTCCCGGTAATCCGTATTTGGT (site GGAGTGGCTAC)” the figure was 0.00572.
Turning to “GGCGTGGCATGGACCGGTTTTCCCGGTAATCCGTATTTGGT (site GGCGTGGCTAC)”, the “recombinant UMI read abundance (log10)” value came to 0.511.
Next, “GGCGTGGCATGGACCGGTTTTCCCGGTAATCCGTATTTGGT (site GGGGTGGCTAC)”: 0.00519; “GGCGTGGCATGGACCGGTTTTCCCGGTAATCCGTATTTGGT (site GGTGTGGCTAC)”: 0.00854; “GGCTAGACATGGACCGGTTTTCCCGGTAATCCGTATTTGCC (site GGATAGACTGG)”: 0.
Next, “GGCTAGACATGGACCGGTTTTCCCGGTAATCCGTATTTGCC (site GGCTAGACTGG)”: 0.563; “GGCTAGACATGGACCGGTTTTCCCGGTAATCCGTATTTGCC (site GGGTAGACTGG)”: 0; “GGCTAGACATGGACCGGTTTTCCCGGTAATCCGTATTTGCC (site GGTTAGACTGG)”: 0.
With “GGCTAGACATGGACCGGTTTTCCCGGTAATCCGTATTTGTG (site GGCTAGACTCA)” the figure was 0.659; with “GGCTATCCATGGACCGGTTTTCCCGGTAATCCGTATTTGAA (site GGCAATCCTTT)”, 0.00767; with “GGCTATCCATGGACCGGTTTTCCCGGTAATCCGTATTTGAA (site GGCCATCCTTT)”, 0.0272.
In the case of “GGCTATCCATGGACCGGTTTTCCCGGTAATCCGTATTTGAA (site GGCGATCCTTT)”, the “recombinant UMI read abundance (log10)” value amounted to 0.0136.
With “GGCTATCCATGGACCGGTTTTCCCGGTAATCCGTATTTGAA (site GGCTATCCTTT)” the figure was 0.133; with “GGCTCCTCATGGACCGGTTTTCCCGGTAATCCGTATTTGTA (site GGCTCCTCTTA)”, 1.84.
With “GGCTGGCCATGGACCGGTTTTCCCGGTAATCCGTATTTGAT (site GGCTGGCCTAT)” the figure was 0.0261; with “GGGAAAACATGGACCGGTTTTCCCGGTAATCCGTATTTGCT (site GAGAAAACTAG)”, 0; with “GGGAAAACATGGACCGGTTTTCCCGGTAATCCGTATTTGCT (site GCGAAAACTAG)”, 0.0308.
With “GGGAAAACATGGACCGGTTTTCCCGGTAATCCGTATTTGCT (site GGGAAAACTAG)” the figure was 0.
In the case of “GGGAAAACATGGACCGGTTTTCCCGGTAATCCGTATTTGCT (site GTGAAAACTAG)”, the “recombinant UMI read abundance (log10)” value amounted to 0.
Next, “GGGAAGACATGGACCGGTTTTCCCGGTAATCCGTATTTGCA (site AGGAAGACTTG)”: 0.813; “GGGAAGACATGGACCGGTTTTCCCGGTAATCCGTATTTGCA (site CGGAAGACTTG)”: 0; “GGGAAGACATGGACCGGTTTTCCCGGTAATCCGTATTTGCA (site GGGAAGACTTG)”: 1.96.
Next, “GGGAAGACATGGACCGGTTTTCCCGGTAATCCGTATTTGCA (site TGGAAGACTTG)”: 1.19; “GGGAAGACATGGACCGGTTTTCCCGGTAATCCGTATTTGCT (site AGGAAGACTTG)”: 0.
With “GGGAAGACATGGACCGGTTTTCCCGGTAATCCGTATTTGCT (site GGGAAGACTAG)” the figure was 1.69; with “GGGAATACATGGACCGGTTTTCCCGGTAATCCGTATTTGAG (site GGGAATACTCT)”, 1.35.
With “GGGAATCCATGGACCGGTTTTCCCGGTAATCCGTATTTGTC (site CGGAATCCTAA)”, the “recombinant UMI read abundance (log10)” value was found to be 0.00512.
With “GGGAATCCATGGACCGGTTTTCCCGGTAATCCGTATTTGTC (site GGGAATCCTGA)” the figure was 0; with “GGGACAACATGGACCGGTTTTCCCGGTAATCCGTATTTGTG (site GGGACAACTCA)”, 0.439.
